Experimental data reported in ChEMBL document CHEMBL1130365, “4-Sulfonamidoanilide tertiary carbinols: A novel series of potassium channel openers” (Bioorg Med Chem Lett, 1997).

Biological target: Sulfonylurea receptors; K-ATP channels (Homo sapiens, UniProt O60706+Q09428+Q14654+Q15842)
Assay: Compound was measured in vitro for potassium channel opening (PCO) activity
Assay type: protein-complex assay, Cavia porcellus

| IC50 [µM] | Structure (SMILES) |
| --- | --- |
| > 30 | CC(O)(C(=O)Nc1ccc(/C(=N\O)c2ccccc2)cc1)C(F)(F)F (mixture of isomers) |
| > 30 | CC(O)(C(=O)Nc1ccc([C@@H](O)c2ccccc2)cc1)C(F)(F)F (mixture of isomers) |
| > 30 | CC(O)(C(=O)Nc1ccc([C@H](O)c2ccccc2)cc1)C(F)(F)F (mixture of isomers) |
| > 30 | CC(O)(C(=O)Nc1ccc(S(=O)(=O)N(c2ccccc2)c2ccccc2)cc1)C(F)(F)F (racemic) |
| > 30 | CO/N=C(/c1ccccc1)c1ccc(NC(=O)C(C)(O)C(F)(F)F)cc1 (racemic) |
| > 30 | CC(O)(C(=O)Nc1ccc(S(=O)(=O)Nc2ccccc2)cc1)C(F)(F)F (racemic) |
| 4.58 | CC(O)(C(=O)Nc1ccc(S(=O)(=O)N2CCSCC2)cc1)C(F)(F)F (racemic) |
| 5.85 | CC(O)(C(=O)Nc1ccc(S(=O)(=O)N2CCOCC2)cc1)C(F)(F)F (racemic) |
| > 30 | CCC(C)N(C(C)CC)S(=O)(=O)c1ccc(NC(=O)C(C)(O)C(F)(F)F)cc1 (racemic) |
| > 30 | CC(O)(C(=O)Nc1ccc(Sc2ccccc2)cc1)C(F)(F)F (racemic) |
| > 30 | CC(O)(C(=O)Nc1ccc(-c2nn[nH]n2)cc1)C(F)(F)F (racemic) |
| 0.48 | CN(C)S(=O)(=O)c1ccc(NC(=O)C(C)(O)C(F)(F)F)cc1 (racemic) |
| 0.81 | CCN(CC)S(=O)(=O)c1ccc(NC(=O)C(C)(O)C(F)(F)F)cc1 (racemic) |
| 0.88 | CC(O)(C(=O)Nc1ccc(S(=O)(=O)N2CCCC2)cc1)C(F)(F)F (racemic) |
| 30.9 | Cn1nnnc1-c1ccc(NC(=O)C(C)(O)C(F)(F)F)cc1 (racemic) |
| 6.44 | CCCN(CCC)S(=O)(=O)c1ccc(NC(=O)C(C)(O)C(F)(F)F)cc1 (racemic) |
| > 30 | CC(C)CN(CC(C)C)S(=O)(=O)c1ccc(NC(=O)C(C)(O)C(F)(F)F)cc1 (racemic) |
| > 30 | CC(O)(C(=O)Nc1ccc(S(=O)(=O)N2CCNCC2)cc1)C(F)(F)F (racemic) |
| 9.25 | CC(O)(C(=O)Nc1ccc(S(=O)(=O)N2CCCCC2)cc1)C(F)(F)F (racemic) |
| 12.8 | CC(O)(C(=O)Nc1ccc(S(N)(=O)=O)cc1)C(F)(F)F (racemic) |

| Structure (SMILES) | IC50 [µM] |
| --- | --- |
| CCN(CC)C(=O)c1ccc(NC(=O)C(C)(O)C(F)(F)F)cc1 (racemic) | > 30 |
